Here are results for 1 compound from patent US20250082651A1, “GANAXOLONE FOR USE IN TREATING GENETIC EPILEPTIC DISORDERS” (Marinus Pharmaceuticals, Inc., priority 2017, published 2025).

The nature of series [1]: Solubility of ganaxolone in solvents. It counts as physicochemical. As to the method:
Ganaxolone is insoluble in water. Its solubilities in 95% alcohol, propylene glycol and polyethylene glycol are 13 mg/mL, 3.5 mg/mL and 3.1 mg/mL, respectively.
The pregnenolone neurosteroid (e.g., ganaxolone) formulations suitable for use in the present invention may also be administered parenterally. In such embodiments, the formulations are suitable for intramuscular, subcutaneous, or intravenous injection may comprise physiologically acceptable sterile aqueous or non-aqueous solutions, dispersions, suspensions or emulsions, and sterile powders for reconstitution into sterile injectable solutions or dispersions. Examples of suitable aqueous and non-aqueous carriers, diluents, solvents, or vehicles including water, ethanol, polyols (propylene glycol, polyethylene-glycol, glycerol, cremophor and the like), suitable mixtures thereof, vegetable oils (such as olive oil) and injectable organic esters such as ethyl oleate. Additionally, Ganaxolone can be dissolved at concentrations of >1 mg/ml using water soluble beta cyclodextrins (e.g. beta-sulfobutyl-cyclodextrin and 2-hydroxypropylbetacyclodextrin). A particularly suitable cyclodextrin is a substituted-β-cyclodextrin is CAPTISOL® (cyckodextrin). […]

Series [2] has as its system dogs. As to the kind of experiment: Cardiovascular safety pharmacology, single dose in dogs. As to conditions: single dose of up to 15 mg/kg. The series is classed as in vivo, dog.
Series [3] relates to cytochrome P450 (CYP) isoenzymes 1A1/2 and 2B1/2. As to the kind of experiment: CYP induction and auto-induction in animals. It counts as in vivo, rat.
The test system of series [4] is rabbits. The experiment in a line: Local tolerance study in rabbits. The series is classed as in vivo, rabbit. The procedure: When given IV to rats and dogs, the main dose limiting toxicity finding was sedation. The no observed adverse effect level (NOAEL) after IV dosing in rats for 14 days was established at 42 mg/kg/day for males and 30 mg/kg/day for females. The NOAEL in dog after administration of ganaxolone by IV bolus followed by continuous IV infusion for 28 days was 7.20 mg/kg/day, which corresponded to a steady-state concentration of approximately 330 ng/mL and 333 ng/mL. There were no findings in a local tolerance study in rabbits.

The nature of series [5]: In vitro haemolysis and human plasma compatibility.
For series [6], the system named is rats or mice. The experiment in a line: Reproductive/developmental toxicity and mutagenicity. The series is classed as in vivo.
A short description of series [7]: Plasma concentrations in paediatric patients after oral dosing. The conditions noted are these: for Plasma concentrations: oral with food, 1 to 13 year old epilepsy patients. It counts as in vivo, human.
Series [8] relates to rats. The experiment in a line: Intravenous ganaxolone in rats: EEG and status epilepticus models. The series is classed as in vivo, rat.
The mark [9] stands for this setting: oral suspension formulation, 3 to 18 mg/kg TID, patients aged 4 to 41 months.

In turn, `CC(=O)[C@H]1CC[C@H]2[C@@H]3CC[C@H]4C[C@](C)(O)CC[C@]4(C)[C@H]3CC[C@]12C` [Ganaxolone, 3α-hydroxy-3β-methyl-5α-pregnan-20-one] registered a Dissolved concentration in series [1] (using water soluble beta cyclodextrins) above 1 mg/mL. The Solubility in water entry in series [1] (water) was “insoluble”. Further, the “Effect on cardiovascular parameters” value in series [2] was “no effect”. The Auto-induction result in series [3] (dogs) is listed as “no auto-induction”; in series [3] (mouse and rat), “Auto-induction has also been observed”. For the same compound, the “Induction of CYP isoenzymes 1A1/2 and 2B1/2” value is given as “induces” in series [3] (female rats) and “not males” in series [3] (male rats). The Local tolerance entry in series [4] was “no findings”. In addition, in series [5], the “Compatibility with human plasma” value is “compatible with human plasma”. Further, the Haemolysis entry in series [5] is reported as “did not cause haemolysis”. Moreover, the Mutagenicity result in series [6] (in vivo) is recorded as “No potential for mutagenicity”. In series [6] (rats), the “Effects on fertility and early embryonic development” value is “no effects”. Moreover, the Teratogenicity entry in series [6] (rats or mice) is “not teratogenic”. In addition, the Plasma concentrations entry is listed as “up to 5.78 ng/mL” in series [7] (1 mg/kg TID) and 10.3 to 16.1 ng/mL in series [7] (12 mg/kg TID). Also, the Trough concentrations result in series [7] (12 mg/kg TID, humans about 0.6 to about 7 years old) is on record as “at least 38.5±37.4 ng/mL”. Also, in series [7] (human, plasma, oral, β-cyclodextrin formulation with food, 6 mg/kg BID to 12 mg/kg TID, 5-15 year old, read-out: Plasma concentrations at week 4), the concentration at 4 weeks is at most 22.1 ng/mL. Besides, the concentration at 8 weeks in series [7] (human, plasma, oral, β-cyclodextrin formulation with food, 6 mg/kg BID to 12 mg/kg TID, 5-15 year old, read-out: Plasma concentrations at week 8) was in the range of 5.7 to 43.7 ng/mL. The Cmax entry in series [7] (setting [9]) is reported as “about 123 ng/mL”. In series [7] (setting [9]), the Trough concentration result was “about 23 ng/mL”. Also, in series [8], the “Sedative / anaesthetic response” value is “did not cause a full anaesthetic response”. In addition, the EEG effect entry in series [8] (otherwise normal rats) is “induce burst suppression-like electroencephalogram (EEG) patterns”.
